Values after ≈ are worked out from the molar mass of the structure shown. Where two headings read alike, the source gives them in different places. Where a SMILES comes first, the peptide text is derived from it. Bridges are numbered along the chain shown (N, C = ends). [ ]: non-standard residue; d: D form. The star is where a group is joined. Decanoyl(3R-OH) = CCCCCCC[C@@H](O)CC(=O)*; Dab = NCC[C@H](N)C(=O)O
Experiments:
[1] = tested on: C. neoformans var. neoformans; experiment: microbe, parasite or virus in culture; conditions: Cryptococcus neoformans, no visible growth
Experimental: (§1) The MICs of the yeast strains for PMB, PME, and octapeptin C4 and its derivatives were determined in accordance with CLSI M27-A2 guidelines using YNB (Becton Dickinson, USA) medium supplemented with 10 mM ammonium sulfate and 2% glucose, a final inoculum concentration of 1.5 × 10^3 to 2.0 × 10^3 cells/ml, and incubation at 35°C for 72 h ([39]). […] The MICs for PMB, PME, and octapeptin C4 for A. fumigatus were determined in accordance with the CLSI M38-A2 guidelines ([40]) using synthetic RPMI 1640 medium (with glutamine, without bicarbonate and with phenol red; Life Technologies, USA). The final inoculum concentration was 0.4 × 10^4 to 5 × 10^4 cells/ml, with incubation at 35°C for 48 h. […] All assays were completed in triplicate. Fluconazole was used as a positive control where the MIC was determined at both 50% growth (in accordance with CLSI M27-A2 guidelines) and when there was a “no visible growth” reading.

[2] = tested on: C. neoformans var. gattii; experiment: microbe, parasite or virus in culture; conditions: no visible growth
Experimental: as §1

[3] = tested on: C. neoformans var. grubii; experiment: organism not typed
Experimental: The MICs of the yeast strains for PMB, PME, and octapeptin C4 and its derivatives were determined in accordance with CLSI M27-A2 guidelines using YNB (Becton Dickinson, USA) medium supplemented with 10 mM ammonium sulfate and 2% glucose, a final inoculum concentration of 1.5 × 10^3 to 2.0 × 10^3 cells/ml, and incubation at 35°C for 72 h ([39]). […] The MICs for PMB, PME, and octapeptin C4 for A. fumigatus were determined in accordance with the CLSI M38-A2 guidelines ([40]) using synthetic RPMI 1640 medium (with glutamine, without bicarbonate and with phenol red; Life Technologies, USA). The final inoculum concentration was 0.4 × 10^4 to 5 × 10^4 cells/ml, with incubation at 35°C for 48 h. […] All assays were completed in triplicate. Fluconazole was used as a positive control where the MIC was determined at both 50% growth (in accordance with CLSI M27-A2 guidelines) and when there was a “no visible growth” reading. […]

[4] = tested on: C. neoformans H99 (cap59Δ); type: cell-based, Cryptococcus neoformans; conditions: Table 2; triplicate, values consistent across replicates
Text: The different susceptibility of C. neoformans and C. gattii to PMB compared to other pathogenic fungi such as C. albicans and A. fumigatus has been postulated to arise from differences in cell surface composition ([38]). One key difference is the presence of a negatively charged polysaccharide capsule in Cryptococcus spp. proposed to concentrate the cationic lipopeptides at the cell surface ([38]). To examine this potential interaction for the octapeptin series, a C. neoformans cap59Δ mutant strain deficient in the secretion of negatively charged glucuronoxylomannan (an α1–3-linked mannan containing β1,2 and β1,4 xylosyl substitutions, as well as β1,2-linked glucuronyl residues) ([41], [42]), was tested against octapeptin C4 in comparison to PMB.
(§2) Fungal strains were stored in 15% glycerol at −80°C until use. The fungal strains used were H99 (C. neoformans type strain) ([55]), cap59Δ (an acapsular H99 mutant) ([56]), ATCC 90113 (C. neoformans), MMRL 2651 (C. gattii), ATCC 90028 (Candida albicans), ATCC 90030 (Candida glabrata), ATCC 22019 (Candida parapsilosis), and ATCC MYA 3626 (Aspergillus fumigatus). Yeasts were cultured in liquid (1% yeast extract, 2% Bacto peptone, 2% glucose) or solid (additional 2% agar) yeast extract-peptone-dextrose (YPD) media at 30°C and maintained at 4°C for no longer than 2 weeks. A. fumigatus was prepared on potato dextrose medium at 30°C and maintained at 4°C for no longer than 2 weeks.
as §1

C. gattii MMRL 2651 = tested on: C. gattii MMRL 2651
Experimental: (§3) A broth microdilution assay was initially used to characterize the antifungal activity of the cyclic lipopeptides ([39], [40]). […] common pathogenic yeasts (C. albicans, C. glabrata, C. parapsilosis, C. neoformans, and C. gattii) and one pathogenic mold (A. fumigatus) were tested to determine the MIC for each compound (Table 1) using broth microdilution. […] The only structural difference between these molecules is the presence of a phenylalanine residue at position 6 in PMB; in PME a D-leucine is present at this location (Fig. 1).
as §2, §1

C. neoformans ATCC 90113 = conditions: ATCC 90113, 72 h
Experimental: as §3, §2, §1

C. neoformans H99 = conditions: H99, 72 h
Experimental: as §3, §2, §1

`C[C@@H]1[C@H](O)[C@@H](C)/C=C/C=C/C=C/C=C/C=C/C=C/C=C/[C@H](O[C@@H]2O[C@H](C)[C@@H](O)[C@H](N)[C@@H]2O)C[C@@H]2O[C@](O)(C[C@@H](O)C[C@@H](O)[C@H](O)CC[C@@H](O)C[C@@H](O)CC(=O)O[C@H]1C)C[C@H](O)[C@H]2C(=O)O` [Amphotericin B, amphotericin B] showed an MIC ([1]; strain WM 01.127 (USA)) of 3.13 µg/mL (≈ 3.39 µM), an MIC ([1]; strain WM 02.141 (Russia)) of 3.13 µg/mL (≈ 3.39 µM) and an MIC ([1]; strain WM 02.143 (Russia)) of 3.13 µg/mL (≈ 3.39 µM). For the same compound, the MIC ([1]; strain WM 02.37 (Canada)) was 3.13 µg/mL (≈ 3.39 µM), the MIC ([1]; strain WM 04.168 (Chile)) was 3.13 µg/mL (≈ 3.39 µM) and the MIC ([1]; strain WM 04.171 (Thailand, environmental)) was 3.13 µg/mL (≈ 3.39 µM). It also gave an MIC ([1]; strain WM 05.467 (Brazil, environmental)) of 3.13 µg/mL (≈ 3.39 µM), an MIC ([1]; strain WM 05.515 (Peru)) of 3.13 µg/mL (≈ 3.39 µM) and an MIC ([1]; strain WM 09.109 (Italy, environmental)) of 3.13 µg/mL (≈ 3.39 µM). It also gave an MIC ([1]; strain WM 09.112 (USA)) of 3.13 µg/mL (≈ 3.39 µM), an MIC ([1]; strain WM 10.119 (Australia)) of 3.13 µg/mL (≈ 3.39 µM) and an MIC ([1]; strain WM 629 (Australia)) of 3.13 µg/mL (≈ 3.39 µM). It also gave an MIC ([1]; strain WM 1706 (Argentina)) of 3.13 µg/mL (≈ 3.39 µM), an MIC ([1]; strain WM 1740 (Chile)) of 3.13 µg/mL (≈ 3.39 µM) and an MIC ([1]; strain WM 2207 (USA, environmental)) of 3.13 µg/mL (≈ 3.39 µM). For the same compound, the MIC ([1]; strain WM 2242 (USA)) was 3.13 µg/mL (≈ 3.39 µM), the MIC ([1]; strain WM 2530 (USA)) was 3.13 µg/mL (≈ 3.39 µM) and the MIC ([2]; Cryptococcus neoformans, ATCC32269, strain ATCC 32269) was 3.13 µg/mL (≈ 3.39 µM). For the same compound, the MIC ([2]; Cryptococcus neoformans, ATCC32609, strain ATCC 32609 (NIH444)) was 3.13 µg/mL (≈ 3.39 µM), the MIC ([2]; Cryptococcus neoformans, ATCC34878, strain ATCC 34878) was 3.13 µg/mL (≈ 3.39 µM) and the MIC ([2]; Cryptococcus neoformans, ATCC34882, strain ATCC 34882) was 3.13 µg/mL (≈ 3.39 µM). The MIC ([2]; Cryptococcus neoformans, strain 93/980 (CSF France)) was 3.13 µg/mL (≈ 3.39 µM), the MIC ([2]; Cryptococcus neoformans, strain 94/943-6 (CSF Mexico)) was 3.13 µg/mL (≈ 3.39 µM) and the MIC ([2]; Cryptococcus neoformans, strain 94/943-8 (CSF Mexico)) was 3.13 µg/mL (≈ 3.39 µM). The MIC ([2]; Cryptococcus neoformans, strain R270 (Vancouver Island)) was 12.5 µg/mL (≈ 13.5 µM), the MIC ([2]; strain 96/1120-2 (CSF HIV2 France)) was 12.5 µg/mL (≈ 13.5 µM) and the MIC [3] was 3.13 µg/mL (≈ 3.39 µM). It also gave an MIC ([3]; Cryptococcus neoformans) of 3.13 µg/mL (≈ 3.39 µM), an MIC ([3]; strain 486 (USA), no visible growth) of 3.13 µg/mL (≈ 3.39 µM) and an MIC ([3]; strain 488 (AIDS+, pre-HAART USA), no visible growth) of 3.13 µg/mL (≈ 3.39 µM). It also gave an MIC ([3]; strain 490 (USA), no visible growth) of 3.13 µg/mL (≈ 3.39 µM), an MIC ([3]; strain 496 (USA), no visible growth) of 3.13 µg/mL (≈ 3.39 µM) and an MIC ([3]; strain 500 (USA), no visible growth) of 3.13 µg/mL (≈ 3.39 µM). The MIC ([3]; strain 502 (ARR3+ USA), no visible growth) was 3.13 µg/mL (≈ 3.39 µM), the MIC ([3]; strain 505 (India), no visible growth) was 3.13 µg/mL (≈ 3.39 µM) and the MIC ([3]; strain 507 (India), no visible growth) was 3.13 µg/mL (≈ 3.39 µM). The MIC ([3]; strain 510 (VNII India), no visible growth) was 3.13 µg/mL (≈ 3.39 µM), the MIC ([3]; strain 512 (India), no visible growth) was 3.13 µg/mL (≈ 3.39 µM) and the MIC ([3]; strain 516 (India), no visible growth) was 3.13 µg/mL (≈ 3.39 µM). It also gave an MIC ([3]; strain 518 (VNI India), no visible growth) of 3.13 µg/mL (≈ 3.39 µM), an MIC ([3]; strain 522 (India), no visible growth) of 3.13 µg/mL (≈ 3.39 µM) and an MIC ([3]; strain 525 (India), no visible growth) of 3.13 µg/mL (≈ 3.39 µM). The MIC ([3]; strain 1188 (Japan lung), no visible growth) was 3.13 µg/mL (≈ 3.39 µM), the MIC ([3]; strain 1194 (Italy), no visible growth) was 3.13 µg/mL (≈ 3.39 µM) and the MIC ([3]; strain 1196 (Botswana CSF/AIDS), no visible growth) was 3.13 µg/mL (≈ 3.39 µM). It also gave an MIC ([3]; strain 1197 (Botswana CSF/AIDS), no visible growth) of 3.13 µg/mL (≈ 3.39 µM), an MIC ([3]; strain H99O (lab strain), no visible growth) of 3.13 µg/mL (≈ 3.39 µM) and an MIC ([3]; strain H99 stud (lab strain), no visible growth) of 3.13 µg/mL (≈ 3.39 µM).

`CCCCCCC[C@@H](O)CC(=O)N[C@H](C)C(=O)N[C@H]1CCNC(=O)[C@H](CC(C)C)NC(=O)[C@H](CCN)NC(=O)[C@H](CCN)NC(=O)[C@H](CC(C)C)NC(=O)[C@@H](Cc2ccccc2)NC(=O)[C@H](CCN)NC1=O` [Compound P1D] ({Decanoyl(3R-OH)}-[dA][Dab][Dab][dF]L[Dab][Dab]L; lactam 2-C) was tested, and the “MICs against various Cryptococcus strains: H99 (cap59Δ)” value [4] was 12.5 µg/mL, the “MICs against various Cryptococcus strains: MMRL 2651” value (C. gattii MMRL 2651; Table 2, C. gattii, triplicate, values consistent across replicates) was 12.5 µg/mL and the “MICs against various Cryptococcus strains: ATCC 90113” value (C. neoformans ATCC 90113) was 6.25 µg/mL. The “MICs against various Cryptococcus strains: H99” value (C. neoformans H99) was 6.25 µg/mL.

`CCCCCCC[C@@H](O)CC(=O)N[C@@H](C)C(=O)N[C@H]1CCNC(=O)[C@H](CC(C)C)NC(=O)[C@H](CCN)NC(=O)[C@H](CCN)NC(=O)[C@H](CC(C)C)NC(=O)[C@@H](Cc2ccccc2)NC(=O)[C@H](CCN)NC1=O` [Compound P1L] ({Decanoyl(3R-OH)}-A[Dab][Dab][dF]L[Dab][Dab]L; lactam 2-C) was tested, and the “MICs against various Cryptococcus strains: H99 (cap59Δ)” value [4] was 25.0 µg/mL, the “MICs against various Cryptococcus strains: MMRL 2651” value (C. gattii MMRL 2651; 72 h) was 12.5 µg/mL and the “MICs against various Cryptococcus strains: ATCC 90113” value (C. neoformans ATCC 90113) was 12.5 µg/mL. The “MICs against various Cryptococcus strains: H99” value (C. neoformans H99) was 12.5 µg/mL.

Reference: publication PMC5786788, “Antimicrobial Octapeptin C4 Analogues Active against Cryptococcus Species” (Antimicrobial Agents and Chemotherapy, 2018)
